Experimental data published in the NIST ThermoML archive (doi:10.1021/je0341413).

What was measured:
[1] = xn = mol fraction of the nth substance listed; conditions: 101.3 kPa, Liquid
[2] = Liquid; for viscosity: 101.3 kPa; for mass density: 101.33 kPa

CCOC(=O)OCC [diethyl carbonate] + CCCO
[1]
Conditions | viscosity [mPa·s]
293.15 K, x1 = 0.0504 | 1.9
293.15 K, x1 = 0.1007 | 1.662
293.15 K, x1 = 0.2008 | 1.325
293.15 K, x1 = 0.3019 | 1.115
293.15 K, x1 = 0.4004 | 0.998
293.15 K, x1 = 0.5039 | 0.921
293.15 K, x1 = 0.6031 | 0.877
293.15 K, x1 = 0.7007 | 0.84
293.15 K, x1 = 0.7999 | 0.808
293.15 K, x1 = 0.9132 | 0.786
293.15 K, x1 = 0.9531 | 0.785
293.15 K, x1 = 1 | 0.795
298.15 K, x1 = 0.0515 | 1.689
298.15 K, x1 = 0.0993 | 1.482
298.15 K, x1 = 0.2012 | 1.178
298.15 K, x1 = 0.3007 | 1.005
298.15 K, x1 = 0.4026 | 0.904
298.15 K, x1 = 0.5022 | 0.845
298.15 K, x1 = 0.6029 | 0.801
298.15 K, x1 = 0.7041 | 0.762
298.15 K, x1 = 0.8087 | 0.73
298.15 K, x1 = 0.9065 | 0.721
298.15 K, x1 = 0.9523 | 0.729
298.15 K, x1 = 1 | 0.749
303.15 K, x1 = 0.0464 | 1.494
303.15 K, x1 = 0.0963 | 1.315
303.15 K, x1 = 0.1968 | 1.062
303.15 K, x1 = 0.2981 | 0.907
303.15 K, x1 = 0.3987 | 0.818
303.15 K, x1 = 0.4958 | 0.771
303.15 K, x1 = 0.5991 | 0.732
303.15 K, x1 = 0.6967 | 0.703
303.15 K, x1 = 0.8063 | 0.678
303.15 K, x1 = 0.908 | 0.674
303.15 K, x1 = 0.9448 | 0.682
303.15 K, x1 = 1 | 0.699
313.15 K, x1 = 0.05 | 1.214
313.15 K, x1 = 0.1018 | 1.087
313.15 K, x1 = 0.2001 | 0.911
313.15 K, x1 = 0.3017 | 0.795
313.15 K, x1 = 0.3958 | 0.727
313.15 K, x1 = 0.504 | 0.674
313.15 K, x1 = 0.6009 | 0.642
313.15 K, x1 = 0.7032 | 0.624
313.15 K, x1 = 0.7998 | 0.61
313.15 K, x1 = 0.8997 | 0.608
313.15 K, x1 = 0.9468 | 0.612
313.15 K, x1 = 1 | 0.623

CCOC(=O)OCC [diethyl carbonate] + CCO
[1]
Conditions | viscosity [mPa·s]
293.15 K, x1 = 0.0503 | 1.098
293.15 K, x1 = 0.0997 | 1.021
293.15 K, x1 = 0.198 | 0.906
293.15 K, x1 = 0.3006 | 0.835
293.15 K, x1 = 0.4031 | 0.792
293.15 K, x1 = 0.5031 | 0.77
293.15 K, x1 = 0.6063 | 0.761
293.15 K, x1 = 0.6898 | 0.755
293.15 K, x1 = 0.8066 | 0.759
293.15 K, x1 = 0.895 | 0.77
293.15 K, x1 = 0.945 | 0.776
293.15 K, x1 = 1 | 0.795
298.15 K, x1 = 0.0496 | 1.05
298.15 K, x1 = 0.0973 | 0.943
298.15 K, x1 = 0.1963 | 0.835
298.15 K, x1 = 0.2985 | 0.771
298.15 K, x1 = 0.398 | 0.728
298.15 K, x1 = 0.5057 | 0.714
298.15 K, x1 = 0.6032 | 0.708
298.15 K, x1 = 0.7035 | 0.703
298.15 K, x1 = 0.7999 | 0.702
298.15 K, x1 = 0.8989 | 0.714
298.15 K, x1 = 0.9283 | 0.721
298.15 K, x1 = 1 | 0.749
303.15 K, x1 = 0.0491 | 0.899
303.15 K, x1 = 0.0984 | 0.834
303.15 K, x1 = 0.1952 | 0.754
303.15 K, x1 = 0.2961 | 0.704
303.15 K, x1 = 0.3946 | 0.673
303.15 K, x1 = 0.4859 | 0.661
303.15 K, x1 = 0.5995 | 0.649
303.15 K, x1 = 0.6959 | 0.648
303.15 K, x1 = 0.7862 | 0.649
303.15 K, x1 = 0.8911 | 0.661
303.15 K, x1 = 0.9254 | 0.669
303.15 K, x1 = 1 | 0.699
313.15 K, x1 = 0.0499 | 0.777
313.15 K, x1 = 0.102 | 0.74
313.15 K, x1 = 0.2038 | 0.676
313.15 K, x1 = 0.3116 | 0.636
313.15 K, x1 = 0.4001 | 0.613
313.15 K, x1 = 0.4971 | 0.6
313.15 K, x1 = 0.6023 | 0.59
313.15 K, x1 = 0.7058 | 0.591
313.15 K, x1 = 0.8065 | 0.596
313.15 K, x1 = 0.9022 | 0.608
313.15 K, x1 = 0.9518 | 0.616
313.15 K, x1 = 1 | 0.623

CCOC(=O)OCC [diethyl carbonate] + CO
[1]
Conditions | viscosity [mPa·s]
293.15 K, x1 = 0.0513 | 0.592
293.15 K, x1 = 0.1002 | 0.596
293.15 K, x1 = 0.1972 | 0.608
293.15 K, x1 = 0.2839 | 0.623
293.15 K, x1 = 0.4038 | 0.642
293.15 K, x1 = 0.5 | 0.657
293.15 K, x1 = 0.5933 | 0.675
293.15 K, x1 = 0.6417 | 0.685
293.15 K, x1 = 0.7996 | 0.722
293.15 K, x1 = 0.9014 | 0.75
293.15 K, x1 = 0.9709 | 0.782
293.15 K, x1 = 1 | 0.795
298.15 K, x1 = 0.0496 | 0.556
298.15 K, x1 = 0.0996 | 0.558
298.15 K, x1 = 0.1985 | 0.574
298.15 K, x1 = 0.2944 | 0.588
298.15 K, x1 = 0.4014 | 0.603
298.15 K, x1 = 0.4975 | 0.615
298.15 K, x1 = 0.6068 | 0.637
298.15 K, x1 = 0.7087 | 0.658
298.15 K, x1 = 0.8365 | 0.688
298.15 K, x1 = 0.9091 | 0.71
298.15 K, x1 = 0.9598 | 0.731
298.15 K, x1 = 1 | 0.749
303.15 K, x1 = 0.049 | 0.518
303.15 K, x1 = 0.0966 | 0.524
303.15 K, x1 = 0.1958 | 0.537
303.15 K, x1 = 0.2824 | 0.548
303.15 K, x1 = 0.3914 | 0.563
303.15 K, x1 = 0.4936 | 0.578
303.15 K, x1 = 0.581 | 0.592
303.15 K, x1 = 0.6945 | 0.612
303.15 K, x1 = 0.7349 | 0.62
303.15 K, x1 = 0.8512 | 0.645
303.15 K, x1 = 0.9214 | 0.663
303.15 K, x1 = 1 | 0.699
313.15 K, x1 = 0.0509 | 0.456
313.15 K, x1 = 0.0999 | 0.46
313.15 K, x1 = 0.2009 | 0.475
313.15 K, x1 = 0.2981 | 0.49
313.15 K, x1 = 0.4009 | 0.505
313.15 K, x1 = 0.5056 | 0.524
313.15 K, x1 = 0.6062 | 0.543
313.15 K, x1 = 0.7033 | 0.561
313.15 K, x1 = 0.8055 | 0.584
313.15 K, x1 = 0.902 | 0.603
313.15 K, x1 = 0.9448 | 0.61
313.15 K, x1 = 1 | 0.623

CCO [ethanol]
[2]
Conditions | mass density [kg/m3] | viscosity [mPa·s]
293.15 K | – | 1.194
298.15 K | 785 | 1.105
303.15 K | – | 0.972
313.15 K | – | 0.826

CCO [ethanol] + CCOC(=O)OCC
[1], x2 = 0
Conditions | viscosity [mPa·s]
293.15 K | 1.194
298.15 K | 1.105
303.15 K | 0.972
313.15 K | 0.826

CO [methanol]
[2]
Conditions | mass density [kg/m3] | viscosity [mPa·s]
293.15 K | – | 0.591
298.15 K | 786.6 | 0.553
303.15 K | – | 0.514
313.15 K | – | 0.45

CO [methanol] + CCOC(=O)OCC
[1], x2 = 0
Conditions | viscosity [mPa·s]
293.15 K | 0.591
298.15 K | 0.553
303.15 K | 0.514
313.15 K | 0.45

CCCCCO [pentan-1-ol]
[2]
Conditions | mass density [kg/m3] | viscosity [mPa·s]
293.15 K | – | 3.979
298.15 K | 810.9 | 3.347
303.15 K | – | 2.932
313.15 K | – | 2.256

CCCCCO [pentan-1-ol] + CCOC(=O)OCC
[1], x2 = 0
Conditions | viscosity [mPa·s]
293.15 K | 3.979
298.15 K | 3.347
303.15 K | 2.932
313.15 K | 2.256

CCCO [propan-1-ol]
[2]
Conditions | mass density [kg/m3] | viscosity [mPa·s]
293.15 K | – | 2.198
298.15 K | 799.5 | 1.97
303.15 K | – | 1.707
313.15 K | – | 1.361

CCCO [propan-1-ol] + CCOC(=O)OCC
[1], x2 = 0
Conditions | viscosity [mPa·s]
293.15 K | 2.198
298.15 K | 1.97
303.15 K | 1.707
313.15 K | 1.361

CC(C)O [propan-2-ol]
[2]
Conditions | mass density [kg/m3] | viscosity [mPa·s]
293.15 K | – | 2.386
298.15 K | 780.9 | 2.098
303.15 K | – | 1.763
313.15 K | – | 1.325

CC(C)O [propan-2-ol] + CCOC(=O)OCC
[1], x2 = 0
Conditions | viscosity [mPa·s]
293.15 K | 2.386
298.15 K | 2.098
303.15 K | 1.763
313.15 K | 1.325
